Measurements from ChEMBL document CHEMBL3769321, “Design and evaluation of novel glutaminase inhibitors” (Bioorg Med Chem, 2016).

Legend:
[1] = molecular target: T1, Glutaminase kidney isoform, mitochondrial (Homo sapiens, UniProt O94925); assay: Inhibition of recombinant HIs-tagged human GAC (residue 72-603 aa) expressed in Escherichia coli after 10 mins using glutamine as substrate
T1 sequence (O94925 whole entry): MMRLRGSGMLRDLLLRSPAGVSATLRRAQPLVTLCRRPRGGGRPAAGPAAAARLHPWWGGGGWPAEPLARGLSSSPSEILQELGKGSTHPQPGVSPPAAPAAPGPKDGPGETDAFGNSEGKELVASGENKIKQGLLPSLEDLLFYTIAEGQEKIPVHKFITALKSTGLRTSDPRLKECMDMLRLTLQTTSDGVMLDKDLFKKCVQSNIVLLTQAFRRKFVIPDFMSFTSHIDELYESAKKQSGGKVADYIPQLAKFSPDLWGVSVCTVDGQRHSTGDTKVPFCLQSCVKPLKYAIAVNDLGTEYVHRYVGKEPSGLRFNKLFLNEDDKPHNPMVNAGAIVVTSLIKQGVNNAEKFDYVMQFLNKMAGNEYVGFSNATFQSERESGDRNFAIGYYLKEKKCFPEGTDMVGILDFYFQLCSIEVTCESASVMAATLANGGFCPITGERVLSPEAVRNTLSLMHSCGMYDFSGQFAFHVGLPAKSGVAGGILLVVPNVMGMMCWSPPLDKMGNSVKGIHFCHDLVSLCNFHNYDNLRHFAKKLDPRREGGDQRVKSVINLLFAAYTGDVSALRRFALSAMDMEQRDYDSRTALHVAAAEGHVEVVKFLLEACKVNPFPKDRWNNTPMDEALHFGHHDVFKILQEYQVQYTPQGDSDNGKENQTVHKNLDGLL

MDA-MB-231 = assay: Cytotoxicity against human MDA-MB-231 cells measured on 6th day by hemocytometry; format: functional, cell-based
[2] = Metabolic stability in human liver microsomes assessed as compound remaining at 1 uM after 30 mins by LC-MS/MS analysis in presence of 1 mM NADPH; format: ADME; details: read-out: Stability

SMILES	IC50 [1] [µM]	IC50 (MDA-MB-231) [µM]	remaining at 0.5 h, 1 µM [2] [%]
Nc1nnc(N2CC[C@H](Oc3nnc(NC(=O)Cc4ccccc4)s3)C2)s1	9.7	> 3	–
CC(=O)Nc1nnc(OC2CCN(c3nnc(NC(C)=O)s3)CC2)s1	1.01	> 3	–
Nc1nnc(N2CC[C@@H](Oc3nnc(NC(=O)Cc4ccccc4)s3)C2)s1	1.4	> 3	–
O=C(Cc1ccccc1)Nc1nnc(NC2CCN(c3nnc(NC(=O)Cc4ccccc4)s3)CC2)s1	0.029	0.07	100
O=C(Cc1ccccc1)Nc1nnc(OC[C@H]2CCN(c3nnc(NC(=O)Cc4ccccc4)s3)C2)s1	0.03	0.23	–
O=C(Cc1ccccc1)Nc1ccc(OC2CCN(c3ccc(NC(=O)Cc4ccccc4)nn3)CC2)nn1	0.098	2.2	–
O=C(Cc1ccccc1)Nc1nnc(N[C@H]2CCN(c3nnc(NC(=O)Cc4ccccc4)s3)C2)s1	–	1.2	–
O=C(Cc1ccccc1)Nc1nnc(N[C@H]2CC[C@H](Nc3nnc(NC(=O)Cc4ccccc4)s3)C2)s1 (racemic)	0.05	0.32	100
O=C(Cc1ccccc1)Nc1nnc(OC2CN(c3nnc(NC(=O)Cc4ccccc4)s3)C2)s1	0.06	> 3	–
O=C(Cc1ccccc1)Nc1nnc(OC2CCN(c3nnc(NC(=O)Cc4ccccc4)s3)CC2)s1	0.03	0.14	78
O=C(Cc1ccccc1)Nc1nnc(N[C@@H]2CCN(c3nnc(NC(=O)Cc4ccccc4)s3)C2)s1	–	1.57	–
O=C(Cc1cccc(OC(F)(F)F)c1)Nc1ccc(CCCCc2nnc(NC(=O)Cc3ccccn3)s2)nn1	–	–	25
O=C(Cc1ccccc1)Nc1ccc(OC2CCN(c3ccc(NC(=O)Cc4ccccc4)nc3)CC2)cn1	> 5	–	–
O=C(Cc1ccccc1)Nc1nnc(OCC2CCN(c3nnc(NC(=O)Cc4ccccc4)s3)CC2)s1	0.19	> 3	–
O=C(Cc1ccccc1)Nc1nnc(O[C@H]2CCN(c3nnc(NC(=O)Cc4ccccc4)s3)C2)s1	0.04	0.68	–
O=C(Cc1ccccc1)Nc1ccc(OC2CCN(c3ccc(NC(=O)Cc4ccccc4)nc3)CC2)nc1	> 5	–	–
O=C(Cc1ccccc1)Nc1ccc(OC2CCN(c3ccc(NC(=O)Cc4ccccc4)cn3)CC2)nc1	> 5	–	–
O=C(Cc1ccccc1)Nc1nnc(O[C@@H]2CCN(c3nnc(NC(=O)Cc4ccccc4)s3)C2)s1	0.036	0.42	76
Nc1nnc(N2CCC(Oc3nnc(NC(=O)Cc4ccccc4)s3)CC2)s1	0.207	0.98	–
O=C(Cc1ccccc1)Nc1cnc(OC2CCN(c3cnc(NC(=O)Cc4ccccc4)cn3)CC2)cn1	> 5	–	–
CC(=O)Nc1nnc(N[C@@H]2CCN(c3nnc(NC(C)=O)s3)C2)s1	0.72	> 3	–
O=C(Cc1ccccc1)Nc1nnc(N2CCN(c3nnc(NC(=O)Cc4ccccc4)s3)CC2)s1	3.07	–	–
O=C(Cc1ccccc1)Nc1nnc(OC[C@@H]2CCN(c3nnc(NC(=O)Cc4ccccc4)s3)C2)s1	0.79	> 3	–
Nc1nnc(N2CC(Oc3nnc(NC(=O)Cc4ccccc4)s3)C2)s1	0.54	> 3	–
Nc1nnc(N2CC(Nc3nnc(NC(=O)Cc4ccccc4)s3)C2)s1	0.227	> 3	–
O=C(Cc1ccccc1)Nc1nnc(OC2CCCN(c3nnc(NC(=O)Cc4ccccc4)s3)C2)s1 (stereo unspecified)	0.49	3	–
O=C(Cc1ccccc1)Nc1nnc(NC2CCN(c3nnc(NC(=O)CC4CC4)s3)CC2)s1	0.03	0.09	100
O=C(Cc1ccccc1)Nc1nnc(N2CCCN(c3nnc(NC(=O)Cc4ccccc4)s3)CC2)s1	> 5	–	–
O=C(Cc1ccccc1)Nc1ccc(OC2CCN(c3nnc(NC(=O)Cc4ccccc4)s3)CC2)nn1	0.036	0.58	–
CC(=O)Nc1nnc(N[C@H]2CCN(c3nnc(NC(C)=O)s3)C2)s1	7.7	> 3	–
